# Organism: Rattus norvegicus
# Test: DrugMatrix - Regimen: Daily Repeat
# Type: toxicity, organism-based, Sprague-Dawley
# Set-up: regimen Daily Repeat, gender Male, age 6-8 weeks
# Conditions: in vivo, po, route oral GAVAGE, […]; for ABSOLUTE BASOPHIL / ABSOLUTE EOSINOPHIL / ABSOLUTE LYMPHOCYTE / ABSOLUTE MONOCYTE / ABSOLUTE SEGMENTED NEUTROPHIL / BASOPHIL / EOSINOPHIL / ERYTHROCYTE COUNT / HEMATOCRIT / HEMOGLOBIN / LEUKOCYTE COUNT / LYMPHOCYTE / MEAN CORPUSCULAR HEMOGLOBIN / MEAN CORPUSCULAR HEMOGLOBIN CONCENTRATION / MEAN CORPUSCULAR VOLUME / MONOCYTE / NEUTROPHIL / NUCLEATED RED BLOOD CELLS / PLATELET COUNT: tissue Blood; for ALANINE AMINOTRANSFERASE / ALBUMIN / ALKALINE PHOSPHATASE / ASPARTATE AMINOTRANSFERASE / BLOOD UREA NITROGEN / CARBON DIOXIDE / CHLORIDE / CHOLESTEROL / CREATINE PHOSPHOKINASE / CREATININE / GLUCOSE / LACTATE DEHYDROGENASE / LIPASE / PHOSPHORUS / POTASSIUM / SODIUM / TOTAL BILIRUBIN / TOTAL PROTEIN / URIC ACID: tissue Plasma
# [1] = 18 mg/kg, 72 h, dose level High, time 3 day
# [2] = 18 mg/kg, 120 h, dose level High, time 5 day
# [3] = 72 h, dose 0.28 mg/Kg, dose level Low, time 3 day
# [4] = 120 h, dose 0.28 mg/Kg, dose level Low, time 5 day
structure (smiles),measurement,setting,value
CC(C(=O)O)c1ccc(CC2CCCC2=O)cc1 (configuration not stated) [LOXOPROFEN],ABSOLUTE BASOPHIL,[1],0 CELLS/uL
same,ABSOLUTE EOSINOPHIL,[1],0 CELLS/uL
same,ABSOLUTE LYMPHOCYTE,[1],12885.33 CELLS/uL
same,ABSOLUTE MONOCYTE,[1],42.67 CELLS/uL
same,ABSOLUTE SEGMENTED NEUTROPHIL,[1],1338.67 CELLS/uL
same,BASOPHIL,[1],0%
same,EOSINOPHIL,[1],0%
same,ERYTHROCYTE COUNT,[1],5.2 x10E6/uL
same,HEMATOCRIT,[1],32.2%
same,HEMOGLOBIN,[1],13.03 G/DL
same,LEUKOCYTE COUNT,[1],14.27 x10E3/uL
same,LYMPHOCYTE,[1],90.67%
same,MEAN CORPUSCULAR HEMOGLOBIN,[1],25.1 pg
same,MEAN CORPUSCULAR HEMOGLOBIN CONCENTRATION,[1],40.53 G/DL
same,MEAN CORPUSCULAR VOLUME,[1],61.93 fL
same,MONOCYTE,[1],0.33%
same,NEUTROPHIL,[1],9%
same,NUCLEATED RED BLOOD CELLS,[1],0 /100WBC
same,PLATELET COUNT,[1],1130.33 x10E3/uL
same,ALANINE AMINOTRANSFERASE,[1],76.67 u/L
same,ALBUMIN,[1],4.03 G/DL
same,ALKALINE PHOSPHATASE,[1],346.33 u/L
same,ASPARTATE AMINOTRANSFERASE,[1],93 u/L
same,BLOOD UREA NITROGEN,[1],15.67 mg/dL
same,CARBON DIOXIDE,[1],30.33 mmol/L
same,CHLORIDE,[1],102.33 MEQ/L
same,CHOLESTEROL,[1],83 mg/dL
same,CREATINE PHOSPHOKINASE,[1],423.33 u/L
same,CREATININE,[1],0.36 mg/dL
same,GLUCOSE,[1],148.67 mg/dL
same,LACTATE DEHYDROGENASE,[1],236.33 u/L
same,LIPASE,[1],13 u/L
same,PHOSPHORUS,[1],11.07 mg/dL
same,POTASSIUM,[1],6.41 MEQ/L
same,SODIUM,[1],143.6 MEQ/L
same,TOTAL BILIRUBIN,[1],0.27 mg/dL
same,TOTAL PROTEIN,[1],5.63 G/DL
same,URIC ACID,[1],1.1 mg/dL
same,ABSOLUTE BASOPHIL,[2],0 CELLS/uL
same,ABSOLUTE EOSINOPHIL,[2],118 CELLS/uL
same,ABSOLUTE LYMPHOCYTE,[2],14441.67 CELLS/uL
same,ABSOLUTE MONOCYTE,[2],168.67 CELLS/uL
same,ABSOLUTE SEGMENTED NEUTROPHIL,[2],1438.33 CELLS/uL
same,BASOPHIL,[2],0%
same,EOSINOPHIL,[2],1%
same,ERYTHROCYTE COUNT,[2],5.58 x10E6/uL
same,HEMATOCRIT,[2],34.33%
same,HEMOGLOBIN,[2],13.8 G/DL
same,LEUKOCYTE COUNT,[2],16.17 x10E3/uL
same,LYMPHOCYTE,[2],90%
same,MEAN CORPUSCULAR HEMOGLOBIN,[2],24.77 pg
same,MEAN CORPUSCULAR HEMOGLOBIN CONCENTRATION,[2],40.2 G/DL
same,MEAN CORPUSCULAR VOLUME,[2],61.53 fL
same,MONOCYTE,[2],1%
same,NEUTROPHIL,[2],8%
same,NUCLEATED RED BLOOD CELLS,[2],0 /100WBC
same,PLATELET COUNT,[2],1237 x10E3/uL
same,ALANINE AMINOTRANSFERASE,[2],60.67 u/L
same,ALBUMIN,[2],4.13 G/DL
same,ALKALINE PHOSPHATASE,[2],356.33 u/L
same,ASPARTATE AMINOTRANSFERASE,[2],101 u/L
same,BLOOD UREA NITROGEN,[2],17 mg/dL
same,CARBON DIOXIDE,[2],27.67 mmol/L
same,CHLORIDE,[2],103.33 MEQ/L
same,CHOLESTEROL,[2],67.67 mg/dL
same,CREATINE PHOSPHOKINASE,[2],434 u/L
same,CREATININE,[2],0.18 mg/dL
same,GLUCOSE,[2],141 mg/dL
same,LACTATE DEHYDROGENASE,[2],660 u/L
same,LIPASE,[2],10.67 u/L
same,PHOSPHORUS,[2],11.17 mg/dL
same,POTASSIUM,[2],5.74 MEQ/L
same,SODIUM,[2],144.53 MEQ/L
same,TOTAL BILIRUBIN,[2],0.23 mg/dL
same,TOTAL PROTEIN,[2],5.77 G/DL
same,URIC ACID,[2],1.33 mg/dL
same,ABSOLUTE BASOPHIL,[3],0 CELLS/uL
same,ABSOLUTE EOSINOPHIL,[3],0 CELLS/uL
same,ABSOLUTE LYMPHOCYTE,[3],8216 CELLS/uL
same,ABSOLUTE MONOCYTE,[3],105.67 CELLS/uL
same,ABSOLUTE SEGMENTED NEUTROPHIL,[3],1111.67 CELLS/uL
same,BASOPHIL,[3],0%
same,EOSINOPHIL,[3],0%
same,ERYTHROCYTE COUNT,[3],5.18 x10E6/uL
same,HEMATOCRIT,[3],32.3%
same,HEMOGLOBIN,[3],13.07 G/DL
same,LEUKOCYTE COUNT,[3],9.43 x10E3/uL
same,LYMPHOCYTE,[3],87.33%
same,MEAN CORPUSCULAR HEMOGLOBIN,[3],25.23 pg
same,MEAN CORPUSCULAR HEMOGLOBIN CONCENTRATION,[3],40.47 G/DL
same,MEAN CORPUSCULAR VOLUME,[3],62.37 fL
same,MONOCYTE,[3],1%
same,NEUTROPHIL,[3],11.67%
same,NUCLEATED RED BLOOD CELLS,[3],0 /100WBC
same,PLATELET COUNT,[3],1232.67 x10E3/uL
same,ALANINE AMINOTRANSFERASE,[3],78.33 u/L
same,ALBUMIN,[3],4 G/DL
same,ALKALINE PHOSPHATASE,[3],425 u/L
same,ASPARTATE AMINOTRANSFERASE,[3],95.33 u/L
same,BLOOD UREA NITROGEN,[3],17 mg/dL
same,CARBON DIOXIDE,[3],30 mmol/L
same,CHLORIDE,[3],101.33 MEQ/L
same,CHOLESTEROL,[3],69 mg/dL
same,CREATINE PHOSPHOKINASE,[3],495.67 u/L
same,CREATININE,[3],0.2 mg/dL
same,GLUCOSE,[3],186.33 mg/dL
same,LACTATE DEHYDROGENASE,[3],214.33 u/L
same,LIPASE,[3],8.67 u/L
same,PHOSPHORUS,[3],12.6 mg/dL
same,POTASSIUM,[3],6.25 MEQ/L
same,SODIUM,[3],143.63 MEQ/L
same,TOTAL BILIRUBIN,[3],0.17 mg/dL
same,TOTAL PROTEIN,[3],5.5 G/DL
same,URIC ACID,[3],1.43 mg/dL
same,ABSOLUTE BASOPHIL,[4],0 CELLS/uL
same,ABSOLUTE EOSINOPHIL,[4],43.33 CELLS/uL
same,ABSOLUTE LYMPHOCYTE,[4],10902.67 CELLS/uL
same,ABSOLUTE MONOCYTE,[4],142 CELLS/uL
same,ABSOLUTE SEGMENTED NEUTROPHIL,[4],678.67 CELLS/uL
same,BASOPHIL,[4],0%
same,EOSINOPHIL,[4],0.33%
same,ERYTHROCYTE COUNT,[4],5.61 x10E6/uL
same,HEMATOCRIT,[4],35.07%
same,HEMOGLOBIN,[4],14.17 G/DL
same,LEUKOCYTE COUNT,[4],11.77 x10E3/uL
same,LYMPHOCYTE,[4],93%
same,MEAN CORPUSCULAR HEMOGLOBIN,[4],25.23 pg
same,MEAN CORPUSCULAR HEMOGLOBIN CONCENTRATION,[4],40.4 G/DL
same,MEAN CORPUSCULAR VOLUME,[4],62.43 fL
same,MONOCYTE,[4],1.33%
same,NEUTROPHIL,[4],5.33%
same,NUCLEATED RED BLOOD CELLS,[4],0 /100WBC
same,PLATELET COUNT,[4],984.33 x10E3/uL
same,ALANINE AMINOTRANSFERASE,[4],57 u/L
same,ALBUMIN,[4],4.3 G/DL
same,ALKALINE PHOSPHATASE,[4],291 u/L
same,ASPARTATE AMINOTRANSFERASE,[4],85.33 u/L
same,BLOOD UREA NITROGEN,[4],18 mg/dL
same,CARBON DIOXIDE,[4],26.67 mmol/L
same,CHLORIDE,[4],103.67 MEQ/L
same,CHOLESTEROL,[4],68.67 mg/dL
same,CREATINE PHOSPHOKINASE,[4],238 u/L
same,CREATININE,[4],0.23 mg/dL
same,GLUCOSE,[4],187.33 mg/dL
same,LACTATE DEHYDROGENASE,[4],153.33 u/L
same,LIPASE,[4],11 u/L
same,PHOSPHORUS,[4],11.87 mg/dL
same,POTASSIUM,[4],5.74 MEQ/L
same,SODIUM,[4],144.4 MEQ/L
same,TOTAL BILIRUBIN,[4],0.2 mg/dL
same,TOTAL PROTEIN,[4],5.83 G/DL
same,URIC ACID,[4],1.6 mg/dL

# Reference: ChEMBL document CHEMBL3885881, “DrugMatrix”
